Patent publication US20170298100A1, “ANTI-VIRAL PEPTIDES” (Cascadia Life Sciences LLC, priority 2014, published 2017)
Like-named read-outs stand apart in the source and are kept apart here.

Legend:
[1] = tested on: influenza H3N2/Wisconsin/67/2005; assay: plaque assay of influenza H3N2 replication in MDCK cells; type: cell-based, influenza virus; conditions: 10 μM, control drug
[2] = tested on: herpes simplex virus type 1 strain KOS; assay: plaque inhibition assay of HSV1 strain KOS replication in Vero cells; type: cell-based; conditions: for inhibition of plaque number: compared to media-only treated controls
MDCK canine kidney cells = conditions: for effect on monolayer: compared to cell control wells
[3] = tested on: Vero African green monkey kidney cells

`CCOC(=O)C1=C[C@@H](OC(CC)CC)[C@H](NC(C)=O)[C@@H](N)C1` [Oseltamivir] was tested, and the “inhibition of H3N2 plaques” value [1] was “completely inhibitory”.

With `Nc1nc2c(ncn2COCCO)c(=O)[nH]1` [acyclovir, reference compound] the “plaque size relative to plaques with 56 μM CLS1N (approx. 0.7 mm)” value ([2]; 5 μM acyclovir control) was “approximately the same size”.

With “Ac-ADVDVSAVQAKLGALELNQRDAAAETELRV-NH2 [CLS2A]” the cytotoxicity (MDCK canine kidney cells; 59.4 μM (second concentration)) was “no cytotoxicity” and the effect on monolayer (MDCK canine kidney cells; 188 μM (highest concentration)) was “moderate thinning and more intense staining of the monolayer”.

“Ac-GDTVGLIDEQNEASKTNGLGAAEAF-NH2 [CLS2G]” was tested, and the cytotoxicity (MDCK canine kidney cells; 74.0 μM (second concentration)) was “no cytotoxicity” and the effect on monolayer (MDCK canine kidney cells; 235 μM (highest concentration)) was “moderate thinning and more intense staining of the monolayer”.

“Ac-RQYSVTDALEDVSTSPQSTEEVVQSFLISQ-NH2 [CLS1S]” was tested, and the “density of the monolayer” value ([3]; 188 ug/ml dilution) was “did not affect the density of the monolayer” and the effect on monolayer ([3]; highest concentration, compared to control untreated cells) was “moderate thinning”.

In the case of “RQYSVTDALEDVNTSPQSTEEVVQSFLISQ (Artificial anti-viral peptides) [CLS1N]”, the plaque size ([2]; 5.6 μM (dilution 4)) is reported as “wild type size”, the “inhibition of plaque number” value ([2]; 5.6 μM (dilution 4)) is reported as “not significant inhibition of plaque number” and the plaque size ([2]; 17.6 μM (dilution 3)) is reported as “wild type size”. The “inhibition of plaque number” value ([2]; 17.6 μM (dilution 3)) was “not significant inhibition of plaque number”, the “plaque size (diameter)” value ([2]; 56 μM, untreated plaques approx. 1.5 mm) was “approx. 0.7 mm” and the plaque number ([2]; 177 μM) was “reduced in number”. For the same molecule, the “inhibition of virus growth in cells” value ([2]; plaque inhibition assay, Vero cells) was “effectively inhibited virus growth”, the monolayer appearance ([3]; 5.6 μM (dilution 4)) was “normal microscopically” and the monolayer appearance ([3]; 17.6 μM (dilution 3)) was “normal microscopically”. The “cytotoxicity grade (density of the monolayer)” value ([3]; 56 μM) was “no cytotoxicity” and the effect on monolayer ([3]; 177 μM, compared to cell control wells) was “moderate thinning and moderately less intense staining of the monolayer”.
